In US10577367B2, “IRAK4 inhibiting agents” (BIOGEN MA INC., priority 2014, dated 2020):

Biological target: IRAK4 (Homo sapiens (Human), UniProt Q9NWZ3)
Assay: IRAK-4 AlphaScreen biochemical kinase assay
Conditions: 1 nM IRAK4, 1 mM ATP, 3.5 h at RT
Protocol: The biochemical assay is in a AlphaScreen format. The kinase reaction is based on the IRAK-4 phosphorylation of a biotin labeled peptide. The phosphopeptide is incubated with anti-phosphothreonine antibody as well as streptavidin- and protein A-coated beads. Binding of the protein-A coated beads to the antibody and the streptavidin beads to the peptide, leads to an energy transfer from one bead to the other, ultimately producing a luminescent/fluorescent signal.
The compounds described herein were tested for in the above biochemical assay.

Chain of IRAK4 (Q9NWZ3 whole entry, species assumed): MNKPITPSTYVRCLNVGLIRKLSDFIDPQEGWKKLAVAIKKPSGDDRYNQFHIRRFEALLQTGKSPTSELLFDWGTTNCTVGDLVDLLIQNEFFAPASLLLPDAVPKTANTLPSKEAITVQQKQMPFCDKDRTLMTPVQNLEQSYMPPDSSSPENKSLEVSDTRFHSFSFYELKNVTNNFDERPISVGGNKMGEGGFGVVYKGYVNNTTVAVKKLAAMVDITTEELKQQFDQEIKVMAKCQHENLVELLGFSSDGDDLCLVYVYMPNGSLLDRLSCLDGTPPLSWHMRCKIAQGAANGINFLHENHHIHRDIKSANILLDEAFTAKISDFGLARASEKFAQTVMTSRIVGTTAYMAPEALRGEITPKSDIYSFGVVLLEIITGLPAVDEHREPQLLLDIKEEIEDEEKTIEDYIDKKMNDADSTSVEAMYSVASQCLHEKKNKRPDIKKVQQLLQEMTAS

SMILES | IC50
CCC(N)c1cccc(-c2ccc3cnc(-c4cccc(C)n4)n3c2)n1 (stereo not drawn) [Example 275, 1-(6-(3-(6-methylpyridin-2-yl)imidazo[1,5-a]pyridin-6-yl)pyridin-2-yl)propan-1-amine] | < 100 nM
O=C1CCCc2ccc(-c3ccc4cnn(-c5cccc(C(F)(F)F)n5)c4c3)nc21 [Example 212, 2-(1-(6-(trifluoromethyl)pyridin-2-yl)-1H-indazol-6-yl)-6,7-dihydroquinolin-8(5H)-one] | > 10000 nM
CCCC(N)c1cccc(-c2ccc3cnc(-c4cccc(C)n4)n3c2)n1 (stereo not drawn) [Example 276, 1-(6-(3-(6-methylpyridin-2-yl)imidazo[1,5-a]pyridin-6-yl)pyridin-2-yl)butan-1-amine] | < 100 nM
CCC[C@H](N)c1cccc(-c2cc(C3=CCN(C)CC3)c3cnn(-c4cccc(CO)n4)c3c2)n1 [Example 423, (S)-(6-(6-(6-(1-aminobutyl)pyridin-2-yl)-4-(1-methyl-1,2,3,6-tetrahydropyridin-4-yl)-1H-indazol-1-yl)pyridin-2-yl)methanol] | < 100 nM
CCC[C@H](N)c1cccc(-c2cc(N3CCCCC3)c3cnn(-c4cccc(CO)n4)c3c2)n1 [Example 324, (S)-(6-(6-(6-(1-aminobutyl)pyridin-2-yl)-4-(piperidin-1-yl)-1H-indazol-1-yl)pyridin-2-yl)methanol] | < 100 nM
N#Cc1cc(-c2cncc(NC(=O)C(F)(F)F)c2)cc2c1cnn2-c1cccc(C(F)(F)F)n1 [Example 208, N-(5-(4-cyano-1-(6-(trifluoromethyl)pyridin-2-yl)-1H-indazol-6-yl)pyridin-3-yl)-2,2,2-trifluoroacetamide] | > 10000 nM
